Experimental data as given in US5668161A, “Substituted thiazoles for the treatment of inflammation” (G.D. Searle & Co., priority 1996, dated 1997).

Legend:
[1] = system: COX II enzyme; settings: E. Meade et al; Futaki et al; cited from earlier work
[2] = system: carrageenan foot edema; assay: Rat Carrageenan Foot Pad Edema Test; format: in vivo, rat (Male Sprague-Dawley); settings: @ 20 mg/kg body weight, oral, 3 hours after carrageenan, read-out: RAT PAW EDEMA % Inhibition
Procedure: Male Sprague-Dawley rats were selected in each group so that the average body weight was as close as possible. Rats were fasted with free access to water for over sixteen hours prior to the test. […] One hour later a subplantar injection of 0.1 mL of 1% solution of carrageenan/sterile 0.9% saline was administered and the volume of the injected foot was measured with a displacement plethysmometer connected to a pressure transducer with a digital indicator. Three hours after the injection of the carrageenan, the volume of the foot was again measured. […] Rat Carrageenan-induced Analgesia Test

[3] = system: carrageenan-induced hyperalgesic foot withdrawal; assay: Rat Carrageenan-induced Analgesia Test; format: in vivo, rat (Male Sprague-Dawley); settings: for inhibition at 20 mg/kg: read-out: ANALGESIA % Inhibition, @ 20 mg/kg body weight, oral, 3 hours after carrageenan
Procedure: The carrageenan foot edema test was performed with materials, reagents and procedures essentially as described by Winter, et al., (Proc. Soc. Exp. Biol. Med., 111, 544 (1962)). Male Sprague-Dawley rats were selected in each group so that the average body weight was as close as possible. Rats were fasted with free access to water for over sixteen hours prior to the test. The rats were dosed orally (1 mL) with compounds suspended in vehicle containing 0.5% methylcellulose and 0.025% surfactant, or with vehicle alone. One hour later a subplantar injection of 0.1 mL of 1% solution of carrageenan/sterile 0.9% saline was administered and the volume of the injected foot was measured with a displacement plethysmometer connected to a pressure transducer with a digital indicator. Three hours after the injection of the carrageenan, the volume of the foot was again measured. The average foot swelling in a group of drug-treated animals was compared with that of a group of placebo-treated animals and the percentage inhibition of edema was determined (Otterness and Bliven, Laboratory Models for Testing NSAIDS, in Non-steroidal Anti-Inflammatory Drugs, (J. Lombardino, ed. 1985)). […] Rat Carrageenan-induced Analgesia Test
The analgesia test using rat carrageenan was performed with materials, reagents and procedures essentially as described by Hargreaves, et al., (Pain, 32, 77 (1988)). Male Sprague-Dawley rats were treated as previously described for the Carrageenan Foot Pad Edema test. Three hours after the injection of the carrageenan, the rats were placed in a special plexiglass container with a transparent floor having a high intensity lamp as a radiant heat source, positionable under the floor. After an initial twenty minute period, thermal stimulation was begun on either the injected foot or on the contralateral uninjected foot. […] The time until the rat withdraws its foot was then measured. The withdrawal latency in seconds was determined for the control and drug-treated groups, and percent inhibition of the hyperalgesic foot withdrawal determined.

[4] = target: T1, murine COX-II (Mus musculus, UniProt Q05769); assay: biochemical
T1 sequence (Q05769 18-604): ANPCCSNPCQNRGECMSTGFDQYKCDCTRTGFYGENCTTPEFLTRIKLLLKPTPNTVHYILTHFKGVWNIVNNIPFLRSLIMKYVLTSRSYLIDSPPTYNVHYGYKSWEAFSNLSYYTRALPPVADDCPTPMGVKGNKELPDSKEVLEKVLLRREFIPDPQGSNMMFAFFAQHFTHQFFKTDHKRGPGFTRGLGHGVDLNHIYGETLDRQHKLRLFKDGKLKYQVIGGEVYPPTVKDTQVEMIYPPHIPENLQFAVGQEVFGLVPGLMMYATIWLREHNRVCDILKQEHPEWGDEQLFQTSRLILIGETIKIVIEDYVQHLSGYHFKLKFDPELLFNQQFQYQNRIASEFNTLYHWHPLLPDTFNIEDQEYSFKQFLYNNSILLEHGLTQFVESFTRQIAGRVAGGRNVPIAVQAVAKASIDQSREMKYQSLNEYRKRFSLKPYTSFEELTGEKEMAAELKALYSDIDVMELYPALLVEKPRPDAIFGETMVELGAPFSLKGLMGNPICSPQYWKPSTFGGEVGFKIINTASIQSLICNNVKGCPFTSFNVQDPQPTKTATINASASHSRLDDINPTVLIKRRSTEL

[5] = target: T2, murine COX-I (Mus musculus, UniProt P22437); assay: COX I activity in vitro, murine (PGE2 by ELISA)
T2 sequence (P22437 27-602): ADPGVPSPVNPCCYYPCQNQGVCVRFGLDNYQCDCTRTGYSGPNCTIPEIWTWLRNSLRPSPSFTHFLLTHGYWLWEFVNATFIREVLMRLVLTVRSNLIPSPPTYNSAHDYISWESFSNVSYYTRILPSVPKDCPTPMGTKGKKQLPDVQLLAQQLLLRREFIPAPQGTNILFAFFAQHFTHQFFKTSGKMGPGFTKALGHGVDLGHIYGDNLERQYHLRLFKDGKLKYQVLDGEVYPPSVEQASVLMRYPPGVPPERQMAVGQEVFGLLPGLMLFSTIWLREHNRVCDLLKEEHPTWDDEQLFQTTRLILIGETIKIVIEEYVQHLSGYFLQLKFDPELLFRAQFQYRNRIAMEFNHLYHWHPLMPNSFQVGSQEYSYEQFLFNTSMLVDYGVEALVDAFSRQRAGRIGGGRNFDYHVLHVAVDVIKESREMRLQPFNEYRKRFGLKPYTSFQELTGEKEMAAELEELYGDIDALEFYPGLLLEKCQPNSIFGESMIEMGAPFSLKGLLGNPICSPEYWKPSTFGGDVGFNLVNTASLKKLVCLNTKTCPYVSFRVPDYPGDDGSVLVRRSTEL

[6] = target: T3, human COX-II (Homo sapiens, UniProt P35354); assay: COX II activity in vitro, human (PGE2 by ELISA)
T3 sequence (P35354 18-604): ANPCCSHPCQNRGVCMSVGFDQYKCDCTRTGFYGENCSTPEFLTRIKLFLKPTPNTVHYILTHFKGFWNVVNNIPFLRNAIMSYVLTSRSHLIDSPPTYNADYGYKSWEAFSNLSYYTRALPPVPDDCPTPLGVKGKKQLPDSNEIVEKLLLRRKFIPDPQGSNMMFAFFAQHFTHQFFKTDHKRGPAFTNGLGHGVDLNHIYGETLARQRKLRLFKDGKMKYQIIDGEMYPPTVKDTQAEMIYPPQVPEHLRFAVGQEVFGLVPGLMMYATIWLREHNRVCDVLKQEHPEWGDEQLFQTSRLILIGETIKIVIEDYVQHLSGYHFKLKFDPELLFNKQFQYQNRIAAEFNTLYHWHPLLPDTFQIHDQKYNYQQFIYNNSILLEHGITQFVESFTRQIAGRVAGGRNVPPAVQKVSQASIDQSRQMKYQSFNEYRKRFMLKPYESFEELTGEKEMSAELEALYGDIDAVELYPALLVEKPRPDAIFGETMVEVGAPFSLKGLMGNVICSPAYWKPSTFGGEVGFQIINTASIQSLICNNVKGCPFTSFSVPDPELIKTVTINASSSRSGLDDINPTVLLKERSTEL

[7] = target: human COX-I (Homo sapiens, UniProt P23219); assay: COX I activity in vitro, human (PGE2 by ELISA)
Chain of human COX-I (P23219 24-599): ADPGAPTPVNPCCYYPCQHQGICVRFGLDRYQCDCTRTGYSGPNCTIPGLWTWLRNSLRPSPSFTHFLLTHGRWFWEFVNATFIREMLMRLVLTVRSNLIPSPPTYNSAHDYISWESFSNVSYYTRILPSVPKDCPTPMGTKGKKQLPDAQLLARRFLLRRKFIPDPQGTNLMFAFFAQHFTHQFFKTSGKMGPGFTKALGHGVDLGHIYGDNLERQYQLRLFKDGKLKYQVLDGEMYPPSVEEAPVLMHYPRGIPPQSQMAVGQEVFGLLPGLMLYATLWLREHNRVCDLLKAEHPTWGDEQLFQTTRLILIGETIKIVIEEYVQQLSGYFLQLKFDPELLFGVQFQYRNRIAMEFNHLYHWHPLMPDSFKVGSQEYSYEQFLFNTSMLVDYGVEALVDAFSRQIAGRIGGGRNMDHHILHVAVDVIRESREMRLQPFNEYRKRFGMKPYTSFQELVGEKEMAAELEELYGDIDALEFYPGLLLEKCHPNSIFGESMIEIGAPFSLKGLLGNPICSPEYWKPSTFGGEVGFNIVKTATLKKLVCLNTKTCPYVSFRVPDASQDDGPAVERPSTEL

Compound	inhibition of the COX II enzyme [1]	inhibition at 20 mg/kg [2]	inhibition at 20 mg/kg [3]	IC50 [4]	IC50 [5]	IC50 [6]	inhibition at 30 mg/kg ([3]; read-out: ANALGESIA % Inhibition, a @ 30 mg/kg, oral, 3 hours after carrageenan)	IC50 [7]
CS(=O)(=O)Nc1ccc([N+](=O)[O-])cc1OC1CCCCC1 [N-(2-cyclohexyloxy-4-nitrophenyl)methanesulfonamide]	inhibits the COX II enzyme	–	–	–	–	–	–	–
CS(=O)(=O)c1ccc(-c2sc(NCc3ccccc3)nc2-c2ccc(F)cc2)cc1 [Example 29, 4-(4-Fluorophenyl)-5-(4-methylsulfonylphenyl)-2-benzylaminothiazole]	–	42%	24%	100 nM	500 nM	–	–	–
CS(=O)(=O)c1ccc(-c2sc(-c3ccccc3Cl)nc2-c2ccc(F)cc2)cc1 [Example 16, 2-(2-Chlorophenyl)-4-(4-fluorophenyl)-5-(4-methylsulfonylphenyl)thiazole]	–	50%	27%	< 100 nM	> 10000 nM	< 100 nM	–	–
COc1ccc2cc(CC(=O)O)ccc2c1 [6-methoxy-2-napthylacetic acid]	selectively inhibit the COX II enzyme	–	–	–	–	–	–	–
CS(=O)(=O)c1ccc(-c2sc(COc3cc(Cl)cc(Cl)c3)nc2-c2ccc(F)cc2)cc1 [Example 33, 2-[(3,5-Dichlorophenoxy)methyl)-4-(4-fluorophenyl)-5-[4-(methylsulfonyl)phenyl]thiazole]	–	36%	–	–	–	< 100 nM	34%	> 100000 nM
